Here are results for 33 compounds from patent US20110028455A1, “Indole-substituted 3-cyanopyridines As Kinase Inhibitors” (Wyeth LLC, priority 2007, published 2011).

Read-outs that look alike come from different tables or passages of the source. A value given as a limit tells only on which side of the number the result lay.

Data set [1] is described as follows: Metabolic stability in rat liver microsomes. The data set is classed as in vitro ADME. To be noted: 30 minutes incubation, remaining compound by HPLC. The method, then: In order to probe the metabolic stability of the compounds of the invention, a series of compounds were selected for stability testing in rat liver microsomes. A DMSO solution of each compound was incubated for 30 minutes in the presence of rat liver homogenate. The percentage of remaining compound was assessed by HPLC. An approximate half life was calculated from the percentage of remaining compound. Table II, below, illustrates a comparison of the in vitro microsomal half life of the selected compounds verses a series of related compounds lacking the C-6 alkyl group. […] It is generally accepted in the industry that improved in vitro metabolic stability frequently translates into improved in vivo metabolic stability. Improved metabolic stability may translate to increased in vivo exposure levels.
A general note: Microsomes from liver hold many membrane-bound enzymes, among them those of drug oxidation.

Data set [2] addresses T1, human PKCθ full length enzyme (Homo sapiens, UniProt Q04759).
T1 construct: human PKCθ full length enzyme (Panvera Cat# P2996); purchased Panvera P2996
The data set is described as follows: PKCθ IMAP Assay. The data set is classed as biochemical. To be noted: PKCθ 1 nM; ATP 6 μM; peptide 100 nM; DMSO 5%; 25 minutes at room temperature; FP readout; read-out: PKC-Theta Mean IC50. The method, then: The materials used include the following: human PKCθ full length enzyme (Panvera Cat# P2996); substrate peptide: 5FAM-RFARKGSLRQKNV-OH (Molecular Devices, RP7032); ATP (Sigma Cat # A2383); DTT (Pierce, 20291); 5× kinase reaction buffer (Molecular Devices, R7209); 5× binding buffer A (Molecular Devices, R7282), 5× binding buffer B (Molecular Devices, R7209); IMAP Beads (Molecular Devices, R7284); and 384-well plates (Corning Costar, 3710).
The reaction buffer was prepared by diluting the 5× stock reaction buffer and adding DTT to obtain a concentration of 3.0 mM. The binding buffer was prepared by diluting the 5× binding buffer A. A master mix solution was prepared using a 90% dilution of the reaction buffer containing 2×ATP (12 uM) and 2× peptide (200 nm). Compounds were diluted in DMSO to 20× of the maximum concentration for the IC50 measurement. 27 μl of the master mix solution for each IC50 curve was added to the first column in a 384-well plate and 3 μl of 20× compound in DMSO was added to each well.
The final concentration of compound was 2× and 10% DMSO. DMSO was added to the rest of the master mix to increase the concentration to 10%. 10 μl of the master mix containing 10% DMSO was added to the rest of the wells on the plate except the 2nd column. 20 μl was transferred from the first column to the 2nd column. The compounds were serially diluted in 2:1 ratio starting from the 2nd column. A 2×(2 nM) PKCθ solution was made in the reaction buffer. 10 μl of the PKCθ solution was added to every well to achieve these final concentrations: PKCθ-1 nM; ATP-6 μM; peptide-100 nM; DMSO-5%. Samples were incubated for 25 minutes at room temperature. The binding reagent was prepared by diluting the beads in 1× binding buffer to 800:1. 50 μl of the binding reagent was added to every well and incubated for 20 minutes. FP was measured using Envision2100 (PerkinElmer Life Sciences). Wells with no ATP and wells with no enzyme were used as controls.

The mark [3] stands for this setting: related compounds lacking the C-6 alkyl group, read-out: Rat Microsome Stability of 6-H cyanopyridine Compounds (approximate half life).
Where [4] appears, read: 6-Me compounds of the invention, read-out: Rat Microsome Stability of 6-Me cyanopyridine Compounds (approximate half life).

T1 sequence (Q04759 whole entry): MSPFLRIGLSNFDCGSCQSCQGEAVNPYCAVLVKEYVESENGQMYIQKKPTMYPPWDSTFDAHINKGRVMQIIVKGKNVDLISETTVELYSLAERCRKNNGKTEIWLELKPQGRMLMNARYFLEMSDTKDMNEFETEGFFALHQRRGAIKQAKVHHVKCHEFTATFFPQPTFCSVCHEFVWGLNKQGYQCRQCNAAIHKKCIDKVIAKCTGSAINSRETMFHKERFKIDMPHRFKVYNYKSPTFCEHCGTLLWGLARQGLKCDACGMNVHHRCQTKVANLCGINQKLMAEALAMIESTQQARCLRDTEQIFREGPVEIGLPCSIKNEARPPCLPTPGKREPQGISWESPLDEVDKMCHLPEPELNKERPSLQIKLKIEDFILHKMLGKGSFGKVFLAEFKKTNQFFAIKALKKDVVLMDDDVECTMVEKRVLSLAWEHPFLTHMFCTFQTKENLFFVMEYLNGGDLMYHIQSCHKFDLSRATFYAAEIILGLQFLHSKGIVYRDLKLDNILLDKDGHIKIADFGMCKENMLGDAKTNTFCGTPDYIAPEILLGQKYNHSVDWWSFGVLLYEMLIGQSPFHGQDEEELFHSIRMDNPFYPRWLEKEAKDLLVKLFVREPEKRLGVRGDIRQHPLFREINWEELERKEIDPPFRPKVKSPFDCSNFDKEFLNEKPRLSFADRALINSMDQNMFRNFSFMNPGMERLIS

Consider `Cc1c(Nc2c(C#N)cncc2-c2ccc(OCCN3CCC(N4CCCC4)CC3)cc2)ccc2[nH]ccc12`, for which the half-life in data set [1] (setting [3]) was over 30 min.

As for `Cc1c(Nc2c(C#N)cncc2-c2ccc(OCCNCCCn3ccnc3)cc2)ccc2[nH]ccc12`, the half-life in data set [1] (setting [3]) stood at 22 min.

For the compound `Cc1ncc(C#N)c(Nc2ccc3[nH]ccc3c2C)c1-c1ccc(OCCN2CCN(CCN(C)C)CC2)cc1` [Example 36, 5-[4-(2-{4-[2-(dimethylamino)ethyl]piperazin-1-yl}ethoxy)phenyl]-6-methyl-4-[(4-methyl-1H-indol-5-yl)amino]nicotinonitrile], the IC50 in data set [2] amounted to 33 nM. Further, in data set [1] (setting [4]), the half-life is over 30 min.

On to `Cc1ncc(C#N)c(Nc2ccc3[nH]ccc3c2C)c1-c1ccc(OCCN2CCCC2)cc1` [Example 20, 6-methyl-4-[(4-methyl-1H-indol-5-yl)amino]-5-[4-(2-pyrrolidin-1-ylethoxy)phenyl]nicotinonitrile], for which, in data set [2], the IC50 worked out at 25 nM. Besides, the half-life in data set [1] (setting [4]) is over 30 min.

With `Cc1c(Nc2c(C#N)cncc2-c2ccc(OCCN3CCOCC3)cc2)ccc2[nH]ccc12`, the half-life in data set [1] (setting [3]) was 8 min.

Regarding `CCOCCNCCOc1ccc(-c2c(C)ncc(C#N)c2Nc2ccc3[nH]ccc3c2C)cc1` [Example 19, 5-(4-{2-[(2-ethoxyethyl)amino]ethoxy}phenyl)-6-methyl-4-[(4-methyl-1H-indol-5-yl)amino]nicotinonitrile], in data set [2], the IC50 turned out to be 46 nM. In addition, in data set [1] (setting [4]), the half-life was over 30 min.

In the case of `CCN1CCN(CCOc2ccc(-c3c(C)ncc(C#N)c3Nc3ccc4[nH]ccc4c3C)cc2)CC1` [Example 33, 5-{4-[2-(4-ethylpiperazin-1-yl)ethoxy]phenyl}-6-methyl-4-[(4-methyl-1H-indol-5-yl)amino]nicotinonitrile], in data set [2], the IC50 was 44 nM. Moreover, the half-life in data set [1] (setting [4]) is over 30 min.

As for `Cc1c(Nc2c(C#N)cncc2-c2ccc(OCCNCc3ccccc3)cc2)ccc2[nH]ccc12`, the half-life in data set [1] (setting [3]) was 6 min.

For the compound `Cc1c(Nc2c(C#N)cncc2-c2ccc(OCCN3CCC(c4ccccc4)CC3)cc2)ccc2[nH]ccc12`, the half-life in data set [1] (setting [3]) is 5 min.

Take `Cc1ncc(C#N)c(Nc2ccc3[nH]ccc3c2C)c1-c1ccc(OCCN2CCOCC2)cc1` [Example 30, 6-methyl-4-[(4-methyl-1H-indol-5-yl)amino]-5-[4-(2-morpholin-4-ylethoxy)phenyl]nicotinonitrile]: in data set [2], the IC50 stood at 124 nM. Also, the half-life in data set [1] (setting [4]) was 17 min.

`Cc1c(Nc2c(C#N)cncc2-c2ccc(OCCN3CCN(CCO)CC3)cc2)ccc2[nH]ccc12`: the half-life in data set [1] (setting [3]) turned out to be 11 min.

For the compound “5-{4-[2-(4-cyclopentylpiperazin-1-yl)ethoxy]phenyl}-6-methyl-4-[(4-methyl-1H-indol-5-yl)amino]nicotinonitrile [Example 37]”, the half-inhibitory concentration (IC50) in data set [2] came out at 30 nM. Also, the “Rat Microsome Stability of 6-Me cyanopyridine Compounds (approximate half life)” value in data set [1] (6-Me compounds of the invention) was over 30 min.

`Cc1ncc(C#N)c(Nc2ccc3[nH]ccc3c2C)c1-c1ccc(OCCNC2CCN(C)CC2)cc1` [Example 22, 6-methyl-4-[(4-methyl-1H-indol-5-yl)amino]-5-(4-{2-[(1-methylpiperidin-4-yl)amino]ethoxy}phenyl)nicotinonitrile]: the IC50 in data set [2] turned out to be 9 nM. Also, the half-life in data set [1] (setting [4]) is over 30 min.

For `Cc1c(Nc2c(C#N)cncc2-c2ccc(OCCN3CCC(N4CCOCC4)CC3)cc2)ccc2[nH]ccc12`, the half-life in data set [1] (setting [3]) was 10 min.

For the compound `Cc1ncc(C#N)c(Nc2ccc3[nH]ccc3c2C)c1-c1ccc(OCCNCc2ccccc2)cc1` [Example 39, 5-{4-[2-(benzylamino)ethoxy]phenyl}-6-methyl-4-[(4-methyl-1H-indol-5-yl)amino]nicotinonitrile], the IC50 in data set [2] was determined as 73 nM. In addition, in data set [1] (setting [4]), the half-life worked out at 14 min.

Take `Cc1ncc(C#N)c(Nc2ccc3[nH]ccc3c2C)c1-c1ccc(OCCN2CCC(c3ccccc3)CC2)cc1` [Example 29, 6-methyl-4-[(4-methyl-1H-indol-5-yl)amino]-5-{4-[2-(4-phenylpiperidin-1-yl)ethoxy]phenyl}nicotinonitrile]: the IC50 in data set [2] is 272 nM. Further, in data set [1] (setting [4]), the half-life was found to be 20 min.

For `Cc1ncc(C#N)c(Nc2ccc3[nH]ccc3c2C)c1-c1ccc(OCCNCC2CCN(C)CC2)cc1` [Example 23, 6-methyl-4-[(4-methyl-1H-indol-5-yl)amino]-5-[4-(2-{[(1-methylpiperidin-4-yl)methyl]amino}ethoxy)phenyl]nicotinonitrile], the IC50 in data set [2] came to 8 nM. Further, the half-life in data set [1] (setting [4]) is over 30 min.

For the compound `Cc1c(Nc2c(C#N)cncc2-c2ccc(OCCNC3CCN(C)CC3)cc2)ccc2[nH]ccc12`, in data set [1] (setting [3]), the half-life was over 30 min.

As for `Cc1c(Nc2c(C#N)cncc2-c2ccc(OCCN3CCN(C)CC3)cc2)ccc2[nH]ccc12`, in data set [1] (setting [3]), the half-life came to 14 min.

For `Cc1ncc(C#N)c(Nc2ccc3[nH]ccc3c2C)c1-c1ccc(OCCNCCCn2ccnc2)cc1` [Example 38, 5-[4-(2-{[3-(1H-imidazol-1-yl)propyl]amino}ethoxy)phenyl]-6-methyl-4-[(4-methyl-1H-indol-5-yl)amino]nicotinonitrile], in data set [2], the IC50 turned out to be 14 nM. Further, the half-life in data set [1] (setting [4]) is over 30 min.

`CCOCCNCCOc1ccc(-c2cncc(C#N)c2Nc2ccc3[nH]ccc3c2C)cc1`: the half-life in data set [1] (setting [3]) was 7 min.

In the case of `Cc1c(Nc2c(C#N)cncc2-c2ccc(OCCNCc3ccccn3)cc2)ccc2[nH]ccc12`, the half-life in data set [1] (setting [3]) was determined as 3 min.

As to `CCN1CCN(CCOc2ccc(-c3cncc(C#N)c3Nc3ccc4[nH]ccc4c3C)cc2)CC1`, in data set [1] (setting [3]), the half-life was 8 min.

As for `Cc1ncc(C#N)c(Nc2ccc3[nH]ccc3c2C)c1-c1ccc(OCCNCc2ccccn2)cc1` [Example 40, 6-methyl-4-[(4-methyl-1H-indol-5-yl)amino]-5-(4-{2-[(pyridin-2-ylmethyl)amino]ethoxy}phenyl)nicotinonitrile], in data set [2], the half-maximal inhibitory concentration (IC50) was 29 nM. Besides, the half-life in data set [1] (setting [4]) came to 13 min.

For `COc1ccc(-c2c(C)ncc(C#N)c2Nc2ccc3[nH]ccc3c2)cc1` [Example 54, 4-(1H-indol-5-ylamino)-5-(4-methoxyphenyl)-6-methylnicotinonitrile], the IC50 in data set [2] is 41 nM.

In the case of `Cc1ncc(C#N)c(Nc2ccc3[nH]ccc3c2C)c1-c1ccc(OCCNCCN2CCCC2)cc1` [Example 21, 6-methyl-4-[(4-methyl-1H-indol-5-yl)amino]-5-(4-{2-[(2-pyrrolidin-1-ylethyl)amino]ethoxy}phenyl)nicotinonitrile], the IC50 in data set [2] turned out to be 26 nM.

Regarding `Cc1ncc(C#N)c(Nc2ccc3[nH]ccc3c2C)c1-c1ccc(C=O)s1` [Example 69, 5-(5-formylthiophen-2-yl)-6-methyl-4-[(4-methyl-1H-indol-5-yl)amino]pyridine-3-carbonitrile], in data set [2], the concentration for half-maximal inhibition (IC50) is 4.8 nM.

With `COc1cccc(-c2c(C)ncc(C#N)c2Nc2ccc3[nH]ccc3c2)c1` [Example 53, 4-(1H-indol-5-ylamino)-5-(3-methoxyphenyl)-6-methylnicotinonitrile], in data set [2], the IC50 is 34 nM.

For the compound `Cc1c(Nc2c(C#N)cncc2-c2ccc(OCCN3CCCC3)cc2)ccc2[nH]ccc12`, the half-life in data set [1] (setting [3]) turned out to be 21 min.

Turning to `Cc1c(Nc2c(C#N)cncc2-c2ccc(OCCN3CCN(CCN(C)C)CC3)cc2)ccc2[nH]ccc12`, the half-life in data set [1] (setting [3]) was over 30 min.

For `Cc1c(Nc2c(C#N)cncc2-c2ccc(OCCNCC3CCN(C)CC3)cc2)ccc2[nH]ccc12`, the half-life in data set [1] (setting [3]) is over 30 min.

Take `Cc1ncc(C#N)c(Nc2ccc3[nH]ccc3c2C)c1-c1ccc(OCCN2CCN(CCO)CC2)cc1` [Example 35, 5-(4-{2-[4-(2-hydroxyethyl)piperazin-1-yl]ethoxy}phenyl)-6-methyl-4-[(4-methyl-1H-indol-5-yl)amino]nicotinonitrile]: in data set [2], the concentration for half-maximal inhibition (IC50) is 44 nM. In data set [1] (setting [4]), the half-life was over 30 min.

Turning to `Cc1ncc(C#N)c(Nc2ccc3[nH]ccc3c2C)c1-c1ccc(OCCNCc2cccnc2)cc1` [Example 41, 6-methyl-4-[(4-methyl-1H-indol-5-yl)amino]-5-(4-{2-[(pyridin-3-ylmethyl)amino]ethoxy}phenyl)nicotinonitrile], the IC50 in data set [2] is 64 nM.

For orientation: half-life means the time in which the quantity being followed falls by half. In general, IC50 refers to the concentration that gives 50% inhibition.
